Values joined by “and” are separate entries in the source; they are usually repeats but may differ in a detail not shown here. Equal values may be shown once.
Conditions: 283.14 K, Liquid, Vibrating tube method

CCCCCCC(=O)OCC(COC(=O)CCCCCC)(COC(=O)CCCCCC)COC(=O)CCCCCC [pentaerythritol tetraheptanoate]
Conditions | mass density
4385.6 kPa | 988.4 kg/m3
4385.7 kPa | 988.4 kg/m3 and 988.5 kg/m3
4385.8 kPa | 988.4 kg/m3
4385.9 kPa | 988.3 kg/m3 and 988.4 kg/m3 and 988.5 kg/m3
4386 kPa | 988.4 kg/m3 and 988.3 kg/m3
4386.1 kPa | 988.5 kg/m3 and 988.4 kg/m3 and 988.3 kg/m3
4386.2 kPa | 988.4 kg/m3
4386.5 kPa | 988.5 kg/m3
4386.7 kPa | 988.4 kg/m3
4387 kPa | 988.3 kg/m3 and 988.4 kg/m3
4387.4 kPa | 988.4 kg/m3
4388.1 kPa | 988.3 kg/m3
4388.6 kPa | 988.5 kg/m3
4392.2 kPa | 988.4 kg/m3
4392.3 kPa | 988.5 kg/m3
4393.3 kPa | 988.3 kg/m3
4394 kPa | 988.5 kg/m3
4394.1 kPa | 988.5 kg/m3
4394.5 kPa | 988.4 kg/m3
4394.7 kPa | 988.4 kg/m3
4395.2 kPa | 988.5 kg/m3 and 988.4 kg/m3
4395.7 kPa | 988.4 kg/m3
4396 kPa | 988.4 kg/m3
4396.2 kPa | 988.5 kg/m3
4396.6 kPa | 988.4 kg/m3
4401.3 kPa | 988.5 kg/m3
4404.8 kPa | 988.5 kg/m3
4409.8 kPa | 988.5 kg/m3
4413.5 kPa | 988.4 kg/m3
4417.1 kPa | 988.4 kg/m3
4421.1 kPa | 988.4 kg/m3
4425.8 kPa | 988.5 kg/m3
4429.6 kPa | 988.5 kg/m3
4433.4 kPa | 988.4 kg/m3
4437.9 kPa | 988.4 kg/m3
4441.9 kPa | 988.6 kg/m3
4445.5 kPa | 988.5 kg/m3
4450.3 kPa | 988.4 kg/m3
4452.1 kPa | 988.5 kg/m3
4456.8 kPa | 988.4 kg/m3
4460.9 kPa | 988.4 kg/m3
4464.4 kPa | 988.4 kg/m3
4469.4 kPa | 988.4 kg/m3
4473.1 kPa | 988.5 kg/m3
4476.9 kPa | 988.5 kg/m3
4480.5 kPa | 988.4 kg/m3
4485.5 kPa | 988.4 kg/m3
4489.5 kPa | 988.4 kg/m3
4493.3 kPa | 988.5 kg/m3
4498.2 kPa | 988.4 kg/m3
4502.1 kPa | 988.4 kg/m3
4505.9 kPa | 988.5 kg/m3
4509.9 kPa | 988.5 kg/m3
4513.7 kPa | 988.6 kg/m3
4518.2 kPa | 988.4 kg/m3
4521.7 kPa | 988.5 kg/m3
4525.7 kPa | 988.5 kg/m3
4529.3 kPa | 988.5 kg/m3
4533.1 kPa | 988.5 kg/m3
4539.2 kPa | 988.5 kg/m3
4548.9 kPa | 988.4 kg/m3
4556.8 kPa | 988.5 kg/m3
4564.8 kPa | 988.5 kg/m3
4572.9 kPa | 988.5 kg/m3
4583.2 kPa | 988.6 kg/m3
4591.3 kPa | 988.5 kg/m3
4599.9 kPa | 988.5 kg/m3
4607.7 kPa | 988.6 kg/m3
4617.4 kPa | 988.5 kg/m3
4625.9 kPa | 988.5 kg/m3
4635.9 kPa | 988.4 kg/m3
4644.3 kPa | 988.5 kg/m3
4652.7 kPa | 988.5 kg/m3
4663.3 kPa | 988.5 kg/m3
4671.8 kPa | 988.5 kg/m3
4680.4 kPa | 988.5 kg/m3
4689.1 kPa | 988.6 kg/m3
4697.7 kPa | 988.5 kg/m3
4708.3 kPa | 988.6 kg/m3
4717 kPa | 988.6 kg/m3
4726.5 kPa | 988.6 kg/m3
4737 kPa | 988.7 kg/m3
4746.4 kPa | 988.9 kg/m3
4755 kPa | 988.6 kg/m3
4774.4 kPa | 988.7 kg/m3
4781.5 kPa | 988.6 kg/m3
4786.9 kPa | 988.6 kg/m3
4792.4 kPa | 988.5 kg/m3
4799.3 kPa | 988.6 kg/m3
4804.7 kPa | 988.7 kg/m3
4810.6 kPa | 988.6 kg/m3
4816.1 kPa | 988.7 kg/m3
4823 kPa | 988.6 kg/m3
4828.9 kPa | 988.7 kg/m3
4834.3 kPa | 988.7 kg/m3
4841.2 kPa | 988.6 kg/m3
4847.3 kPa | 988.7 kg/m3
4853.2 kPa | 988.7 kg/m3
4858.7 kPa | 988.6 kg/m3
4865.8 kPa | 988.6 kg/m3
4871.7 kPa | 988.8 kg/m3
4877.4 kPa | 988.7 kg/m3
4884.1 kPa | 988.6 kg/m3
4890 kPa | 988.7 kg/m3
4895.9 kPa | 988.8 kg/m3
4902.8 kPa | 988.7 kg/m3
4908.7 kPa | 988.8 kg/m3
4914.6 kPa | 988.7 kg/m3
4920.6 kPa | 988.8 kg/m3
4927.9 kPa | 988.7 kg/m3
4934 kPa | 988.7 kg/m3
4940 kPa | 988.7 kg/m3
4946.3 kPa | 988.7 kg/m3
4953 kPa | 988.7 kg/m3
4959.8 kPa | 988.6 kg/m3
4965.7 kPa | 988.6 kg/m3
4971.9 kPa | 988.7 kg/m3
4978 kPa | 988.8 kg/m3
4985.2 kPa | 988.8 kg/m3
4991.3 kPa | 988.8 kg/m3
4997.3 kPa | 988.9 kg/m3
5004.4 kPa | 988.8 kg/m3
5010.7 kPa | 988.7 kg/m3
5016.9 kPa | 988.8 kg/m3
5023.1 kPa | 988.7 kg/m3
5031.1 kPa | 988.7 kg/m3
5036.4 kPa | 988.8 kg/m3
5043.4 kPa | 988.8 kg/m3
5049.8 kPa | 988.8 kg/m3
5057 kPa | 988.9 kg/m3
5063.3 kPa | 988.7 kg/m3
5069.3 kPa | 988.8 kg/m3
5075.9 kPa | 988.8 kg/m3
5083.3 kPa | 988.9 kg/m3
5089.6 kPa | 988.9 kg/m3
5095.8 kPa | 988.8 kg/m3
5103.7 kPa | 988.7 kg/m3
5110 kPa | 988.8 kg/m3
5116.5 kPa | 988.9 kg/m3
5122.9 kPa | 988.8 kg/m3
5129 kPa | 988.9 kg/m3
5137 kPa | 988.9 kg/m3
5192 kPa | 988.9 kg/m3
5198.7 kPa | 988.9 kg/m3
5206.7 kPa | 989 kg/m3
5213.1 kPa | 989 kg/m3
5219.7 kPa | 988.8 kg/m3
5227.4 kPa | 988.8 kg/m3
5234.2 kPa | 988.9 kg/m3
5241.1 kPa | 988.9 kg/m3
5247.7 kPa | 988.9 kg/m3
5255.5 kPa | 988.9 kg/m3
5262.2 kPa | 988.9 kg/m3
5269 kPa | 988.9 kg/m3
5277.1 kPa | 989 kg/m3
5284.2 kPa | 988.9 kg/m3
5291.1 kPa | 988.9 kg/m3
5298.2 kPa | 988.9 kg/m3
5306.7 kPa | 988.9 kg/m3
5313.1 kPa | 988.9 kg/m3
5319.7 kPa | 989 kg/m3
5326.9 kPa | 988.9 kg/m3
5335.6 kPa | 988.9 kg/m3
5342.3 kPa | 988.9 kg/m3
5349.4 kPa | 988.9 kg/m3
5357.5 kPa | 989 kg/m3
5365 kPa | 988.9 kg/m3
5371.7 kPa | 989 kg/m3
5380.2 kPa | 989 kg/m3
5387.5 kPa | 989 kg/m3
5394.7 kPa | 988.9 kg/m3
5401.6 kPa | 989.1 kg/m3
5410.1 kPa | 989 kg/m3
5417.6 kPa | 989 kg/m3
5424.8 kPa | 988.9 kg/m3
5433.5 kPa | 989 kg/m3
5440.6 kPa | 989.1 kg/m3
5447.7 kPa | 989.1 kg/m3
5455.3 kPa | 989 kg/m3
5463.1 kPa | 989.1 kg/m3
5471.2 kPa | 989.1 kg/m3
5478.6 kPa | 989 kg/m3
5485.9 kPa | 989.1 kg/m3
5494.7 kPa | 989.1 kg/m3
5502.5 kPa | 989.1 kg/m3
5509.9 kPa | 989 kg/m3
5517.5 kPa | 989.1 kg/m3
5526.7 kPa | 989.1 kg/m3
5534 kPa | 989.2 kg/m3
5541.8 kPa | 989.2 kg/m3
5549 kPa | 989.1 kg/m3
5565.4 kPa | 989.1 kg/m3
5582.7 kPa | 989.1 kg/m3
5591.5 kPa | 989.2 kg/m3
5599.8 kPa | 989.1 kg/m3
5607.5 kPa | 989.2 kg/m3
5615.5 kPa | 989.2 kg/m3
5624.1 kPa | 989.1 kg/m3
5632.1 kPa | 989.2 kg/m3
5640 kPa | 989.1 kg/m3
5649.2 kPa | 989.2 kg/m3
5657 kPa | 989.3 kg/m3
5665.1 kPa | 989.1 kg/m3
5674.3 kPa | 989.1 kg/m3
5682.4 kPa | 989.1 kg/m3
5690.4 kPa | 989.2 kg/m3
5697.6 kPa | 989.2 kg/m3
5705.8 kPa | 989.1 kg/m3
5714.2 kPa | 989.3 kg/m3
5724.3 kPa | 989.1 kg/m3
5732.6 kPa | 989.2 kg/m3
5739.8 kPa | 989.3 kg/m3
5774.2 kPa | 989.2 kg/m3
5783.6 kPa | 989.3 kg/m3
5791.5 kPa | 989.2 kg/m3
5800 kPa | 989.2 kg/m3
5810.4 kPa | 989.3 kg/m3
5818.7 kPa | 989.3 kg/m3
5827 kPa | 989.3 kg/m3
5837 kPa | 989.3 kg/m3
5845 kPa | 989.2 kg/m3
5854.3 kPa | 989.2 kg/m3
5862.6 kPa | 989.3 kg/m3
5871.8 kPa | 989.2 kg/m3

From the NIST ThermoML archive (doi:10.1021/je060271a)
